Tests used:
TAMRA-peptide = experiment: ITC binding of STACs to TAMRA-peptide; details: 26° C., pH 7.3, read-out: Kd for the binding of activator to TAMRA-peptide
Procedure: ITC experiments were performed using either a VP-ITC system or iTC200 system (MicroCal) at 26° C. in a buffer composed of 137 mM NaCl, 2.7 mM KCl, 1 mM MgCl2, 2 mM TCEP, 5% (v/v) glycerol and 50 mM HEPES-NaOH, pH 7.3. SIRT1(183-664) was purified and dialyzed against the buffer, centrifuged, and degassed before the experiment. The peptide and compounds were dissolved in the final dialysis buffer and their pH values were adjusted to match that of the protein solution. […] To characterize this interaction using the iTC200 system, 1 mM TAMRA-peptide was injected in 20 aliquots of 2 μL, (except the first injection, which was 0.5 μL) into a 0.202 mL sample cell containing 100 μM STAC. For STACs with poor solubility, the concentrations were adjusted accordingly. […] In all cases, data was corrected for the heat of dilution and fitted using a nonlinear least-squares routine using a single-site binding model with Origin for ITC v7.0383 (Microcal) with the stoichiometry (n), the enthalpy of the reaction (ΔH) and the association constant (Ka) calculated.

SIRT1 [1] = biological target: T1, SIRT1 (Homo sapiens, UniProt Q96EB6); experiment: Mass spectrometry based SIRT1 activation assay (TAMRA/5TMR-labeled 20mer peptide); format: biochemical; details: for Emax: 25 min, percent maximum fold activation of SIRT1, read-out: % FOLD ACT.; for EC1.5 uM: concentration that results in 150% activation of SIRT1
T1 sequence (Q96EB6 1-747): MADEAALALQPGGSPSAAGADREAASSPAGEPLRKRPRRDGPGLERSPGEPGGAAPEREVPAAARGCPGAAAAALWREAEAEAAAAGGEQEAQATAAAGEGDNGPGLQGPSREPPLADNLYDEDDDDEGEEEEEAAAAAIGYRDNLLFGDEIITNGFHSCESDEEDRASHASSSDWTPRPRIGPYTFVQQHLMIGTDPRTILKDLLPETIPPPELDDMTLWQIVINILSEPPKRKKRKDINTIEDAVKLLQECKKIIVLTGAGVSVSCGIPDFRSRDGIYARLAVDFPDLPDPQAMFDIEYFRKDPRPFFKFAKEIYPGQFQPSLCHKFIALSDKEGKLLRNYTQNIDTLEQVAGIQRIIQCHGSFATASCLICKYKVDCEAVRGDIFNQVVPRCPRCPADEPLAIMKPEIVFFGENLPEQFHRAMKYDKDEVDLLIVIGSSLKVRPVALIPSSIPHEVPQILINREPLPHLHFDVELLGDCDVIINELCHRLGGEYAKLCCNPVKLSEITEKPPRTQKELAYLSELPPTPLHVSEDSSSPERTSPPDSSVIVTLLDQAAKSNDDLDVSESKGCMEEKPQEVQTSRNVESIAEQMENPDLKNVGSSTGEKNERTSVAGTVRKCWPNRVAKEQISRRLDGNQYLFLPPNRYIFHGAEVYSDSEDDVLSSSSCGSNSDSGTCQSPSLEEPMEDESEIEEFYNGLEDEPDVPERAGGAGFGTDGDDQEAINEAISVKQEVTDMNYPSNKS
Excerpt: A mass spectrometry based assay was used to identify modulators of SIRTI activity. The mass spectrometry based assay utilizes a peptide having 20 amino acid residues as follows: Ac-EE-K(biotin)-GQSTSSHSK(Ac)NleSTEG-K(5TMR)-EE-NH2 (SEQ ID NO: 1) wherein K(Ac) is an acetylated lysine residue and Nle is a norleucine. The peptide is labeled with the fluorophore 5TMR (excitation 540 nrnIemission 580 nm) at the C-terminus. The sequence of the peptide substrate is based on p53 with several modifications. In addition, the methionine residue naturally present in the sequence was replaced with the norleucine because the methionine may be susceptible to oxidation during synthesis and purification.
The mass spectrometry assay is conducted as follows: 0.5 J-1M peptide substrate and 120 μM βNAD^+ is incubated with 10 nM SIRT1 for 25 minutes at 25° C. in a reaction buffer (50 mM Tris-acetate pH 8, 137 mM NaCl, 2.7 mM KCl, 1 mM MgClz, 5 mM DTT, 0.05% BSA). Test compounds may be added to the reaction as described above. The SirTI gene is cloned into a T7-promoter containing vector and transformed into BL21 (DE3). After the 25 minute incubation with SIRT1, 10 μL of 10% formic acid is added to stop the reaction. Reactions are sealed and frozen for later mass spec analysis. Determination of the mass of the substrate peptide allows for precise determination of the degree of acetylation (i.e. starting material) as compared to deacetylated peptide (product).
A control for inhibition of sirtuin activity is conducted by adding 1 μL of 500 mM nicotinamide as a negative control at the start of the reaction (e.g., permits determination of maximum sirtuin inhibition). A control for activation of sirtuin activity is conducted using 10 nM of sirtuin protein, with 1 μL of DMSO in place of compound, to determine the amount of deacetylation of the substrate at a given timepoint within the linear range of the assay. This timepoint is the same as that used for test compounds and, within the linear range, the endpoint represents a change in velocity.
For the above assay, SIRTI protein was expressed and purified as follows. The SirT1 gene was cloned into a T7-promoter containing vector and transformed into BL21(DE3). The protein was expressed by induction with 1 mM IPTG as an N-terminal His-tag fusion protein at 18° C. overnight and harvested at 30,000×g. Cells were lysed with lysozyme in lysis buffer (50 mM Tris-HCl, 2 mM Tris[2-carboxyethyl]phosphine (TCEP), 10 μM ZnCl2, 200 mM NaCl) and further treated with sonication for 10 min for complete lysis. The protein was purified over a Ni-NTA column (Amersham) and fractions containing pure protein were pooled, concentrated and run over a sizing column (Sephadex S200 26/60 global). The peak containing soluble protein was collected and run on an Ion-exchange column (MonoQ). Gradient elution (200 mM-500 mM NaCl) yielded pure 20 protein. This protein was concentrated and dialyzed against dialysis buffer (20 mM TrisHCl, 2 mM TCEP) overnight. The protein was aliquoted and frozen at −80° C. until further use.
Sirtuin modulating compounds that activated SIRT1 were identified using the assay described above and are shown below in Table 4. The EC1.5 values represent the concentration of test compounds that result in 150% activation of SIRT1. The EC1.5 values for the activating compounds are represented by A (EC1.5≦1 μM), B (EC1.5>1 μM). The percent maximum fold activation is represented by A (Fold activation ≧200%) or B (Fold Activation <200%).

SIRT1 [2] = biological target: T1, SIRT1; experiment: Mass spectroscopic kinetic assay of SIRT1-catalyzed deacetylation of 20mer peptides; format: biochemical; details: substrate TAMRA-peptide
Procedure: Bovine glutamate dehydrogenase (GDH), α-ketoglutarate, NADH and NAD^+ were from Sigma Chemical Company. […] The nicotinamidase PNC1 was prepared as described by Denu and colleagues (Smith et al. (2009) Anal Biochem 394, 101-109). Our collection of approximately 5,000 SIRT1 activators was screened using the BioTrove mass spectrometry system, as previously described (Milne et al. (2007) Nature 450, 712-716). […] Compounds were present at 10 μM, and the assays were conducted in a pH 7.4 buffer containing 150 mM Tris, 5 mM DTT, 1% DMSO, and 0.025% BSA. To determine the interaction of STACs with SIRT1 two kinetic methods were employed. […] (2007) Nature 450, 712-716). The other, used with peptides of general structure […], used a continuous, enzyme-coupled method reported previously (Smith et al. (2009) Anal Biochem 394, 101-109), in which the SRT1 product nicotinamide is first converted into nicotinic acid and ammonia by the action of PNC1, and the ammonia then used by GDH to convert α-ketoglutarate into glutamate. This reaction occurs with oxidation of NADH to NAD^+ which is accompanied by a change in absorbance at 340 nm (Δε340=-6,200 M^-1 cm^-1). Activator titrations were plotted as relative velocity (i.e., the ratio of vx, velocity in the presence of activator X, to vo, velocity in the absence of activator) vs. [X]o, initial concentration of activator, and fit by nonlinear least-squares to the mechanism-independent expression for enzyme activation of […] the maximum relative velocity (i.e., vx/vo at infinite [X]o) and EC50 is the activator concentration at which vx/vo=(RVmax-1)/2. EC50 is a function of the kinetic mechanisms of both catalysis and activation, and the concentrations of substrates.

SIRT1(183-664) = biological target: T2, SIRT1(183-664) (Homo sapiens, UniProt Q96EB6); experiment: ITC binding of STACs to SIRT1(183-664); details: dissociation constant of SRT:SIRT1 complex, read-out: Kx (μM), ITC
T2 construct: the truncated version used for biophysical studies SIRT1(183-664); made in house
T2 sequence (Q96EB6 183-664): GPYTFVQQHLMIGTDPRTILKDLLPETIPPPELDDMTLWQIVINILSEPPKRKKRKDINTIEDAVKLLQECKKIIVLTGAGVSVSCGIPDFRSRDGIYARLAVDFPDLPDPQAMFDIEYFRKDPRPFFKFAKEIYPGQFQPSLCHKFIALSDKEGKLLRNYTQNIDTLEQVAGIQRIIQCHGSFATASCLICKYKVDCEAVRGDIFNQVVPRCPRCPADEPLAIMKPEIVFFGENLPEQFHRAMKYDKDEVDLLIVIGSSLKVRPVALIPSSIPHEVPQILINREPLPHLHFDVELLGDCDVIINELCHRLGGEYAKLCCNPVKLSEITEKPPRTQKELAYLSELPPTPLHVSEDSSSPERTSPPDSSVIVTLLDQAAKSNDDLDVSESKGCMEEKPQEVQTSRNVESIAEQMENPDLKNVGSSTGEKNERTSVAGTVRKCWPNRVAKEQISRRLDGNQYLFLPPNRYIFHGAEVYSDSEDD
Procedure: All peptides were prepared by BioPeptide (San Diego, Calif.) and shown to be at least 95% pure by analytical HPLC analysis. Bovine glutamate dehydrogenase (GDH), α-ketoglutarate, NADH and NAD^+ were from Sigma Chemical Company. Full-length, human SIRT1 and the truncated version used for biophysical studies SIRT1(183-664) were prepared as described previously, and shown to have equivalent kinetic properties (Milne et al. (2007) Nature 450, 712-716). The nicotinamidase PNC1 was prepared as described by Denu and colleagues (Smith et al. (2009) Anal Biochem 394, 101-109). ITC experiments were performed using either a VP-ITC system or iTC200 system (MicroCal) at 26° C. in a buffer composed of 137 mM NaCl, 2.7 mM KCl, 1 mM MgCl2, 2 mM TCEP, 5% (v/v) glycerol and 50 mM HEPES-NaOH, pH 7.3. SIRT1(183-664) was purified and dialyzed against the buffer, centrifuged, and degassed before the experiment. The peptide and compounds were dissolved in the final dialysis buffer and their pH values were adjusted to match that of the protein solution. […] To characterize this interaction using the iTC200 system, 1 mM TAMRA-peptide was injected in 20 aliquots of 2 μL, (except the first injection, which was 0.5 μL) into a 0.202 mL sample cell containing 100 μM STAC. For STACs with poor solubility, the concentrations were adjusted accordingly. […] To characterize the interaction of a STAC with SIRT1(183-664) on the VP-ITC system, 100 μM enzyme was injected in 35 aliquots of 8 μL, (except the first injection, which was 2 μL) into a 1.47 mL sample cell containing 10 μM STAC. […] In all cases, data was corrected for the heat of dilution and fitted using a nonlinear least-squares routine using a single-site binding model with Origin for ITC v7.0383 (Microcal) with the stoichiometry (n), the enthalpy of the reaction (ΔH) and the association constant (Ka) calculated.

Row | SMILES | Kd (TAMRA-peptide) [nM] | Emax (SIRT1 [1]) [%] | EC1.5 uM (SIRT1 [1]) | EC1.5 for activation of SIRT1 (SIRT1 [2]; concentration for 1.5-fold activation) [µM] | EC50 (SIRT1 [2]; fit to eq (1), read-out: EC50 (Kx) for activation of SIRT1-catalyzed deacetylation of TAMRA-peptide) [nM] | Kd (SIRT1(183-664)) [µM]
1 | O=C(Nc1ccccc1-c1nc2cc(CCC3CCNCC3)cnc2s1)c1cccc(C2CCNC2)c1 (centres unmarked) [Compound 7] | 36000 | ≥ 200 | A (EC1.5≦1 μM) | 0.1 | 500 | 
2 | CCCNc1cc(-c2nc3c(NC(=O)c4ccc(CN5CCNCC5)cc4)cccc3[nH]2)ccn1 [Compound 13] |  | ≥ 200 | A (EC1.5≦1 μM) |  |  | 0.32
